We go through ten compounds from ChEMBL document CHEMBL1201862, “PubChem BioAssay data set” (2004).

Among the test systems are A498; A549; COLO 205; HOP-62; IGROV-1; KM12; MCF7; MDA-MB-231; NCI-H23; NCI-H460; OVCAR-3; OVCAR-4; OVCAR-8; SF-295; SK-MEL-2; SK-MEL-5; SN12C; SNB-19; TK-10; U-251.
Holding throughout (experiment): growth of human tumour cells (NCI), 48 h

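Five concentrations, 48 hours, 96-well plates. GI50 = concentration required for 50% inhibition of growth.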 The source made the active and inactive calls. Cut-off read from the data, not from the text of the source: active = GI50 up to about 1.1 µM and inactive = higher.

On to `CCOC(=O)CN1C(=O)c2c(c(C)n(-c3ccccc3)c2C)C1=O`, for which the GI50 with A498 is > 100 µM (inactive); with A549 it was > 100 µM (inactive); in the assay on COLO 205 it was > 100 µM (inactive); in the assay on HOP-62, 36 µM (inactive); in the assay on IGROV-1, > 100 µM (inactive); in the assay with KM12, > 100 µM (inactive). Also, the GI50 in the assay on MCF7, with MDA-MB-231, in the assay on NCI-H23, with NCI-H460, with OVCAR-3 and with OVCAR-4 was > 100 µM (inactive) each time. Moreover, the GI50 with OVCAR-8, in the assay with SF-295, in the assay on SK-MEL-2, with SK-MEL-5, in the assay on SN12C and in the assay with SNB-19 was > 100 µM (inactive) throughout. The GI50 is > 100 µM (inactive) in the assay with TK-10 and 73.5 µM (inactive) with U-251.
On to `COC(=O)C1C2OC(C)(C)OC2CN1S(=O)(=O)c1ccc(C)cc1` (stereo not given), for which the GI50 with A498 was > 100 µM (inactive); in the assay on A549, > 100 µM (inactive); with COLO 205, > 100 µM (inactive); with HOP-62, > 100 µM (inactive); in the assay on IGROV-1 it was 14.5 µM (inactive); in the assay with KM12 it was > 100 µM (inactive). For the same compound, the GI50 with MCF7, in the assay on MDA-MB-231, in the assay with NCI-H23, in the assay with NCI-H460, in the assay with OVCAR-3 and with OVCAR-4 was > 100 µM (inactive) in each case. Also, the GI50 with OVCAR-8, with SF-295, with SK-MEL-2, in the assay with SK-MEL-5, in the assay with SN12C and in the assay on SNB-19 was > 100 µM (inactive) in each case. Besides, the GI50 in the assay with TK-10 and with U-251 was > 100 µM (inactive) each time.
As to `CC(=O)Nc1ccc2nc(N)n[n+]([O-])c2c1`, the GI50 in the assay on A498, in the assay on A549, with COLO 205, in the assay on HOP-62, in the assay with IGROV-1 and in the assay with KM12 was > 100 µM (inactive) each time. Also, the GI50 with MCF7, in the assay on MDA-MB-231, in the assay with NCI-H23, with NCI-H460, in the assay on OVCAR-3 and in the assay on OVCAR-4 was > 100 µM (inactive) throughout. Also, the GI50 in the assay on OVCAR-8, in the assay on SF-295, in the assay on SK-MEL-2, with SK-MEL-5, in the assay on SN12C and in the assay on SNB-19 was > 100 µM (inactive) in each case. The GI50 with TK-10 is 77.8 µM (inactive); with U-251, > 100 µM (inactive).
For the compound `CC(C)(C)OC(=O)N1Cc2cc(O)ccc2C[C@H]1C(=O)O`, the GI50 in the assay on A498, in the assay with A549, in the assay on COLO 205, in the assay on HOP-62, in the assay with IGROV-1 and in the assay on KM12 was > 100 µM (inactive) throughout. The GI50 with MCF7, in the assay with MDA-MB-231, with NCI-H23, in the assay with NCI-H460, in the assay with OVCAR-3 and in the assay with OVCAR-4 was > 100 µM (inactive) throughout. Besides, the GI50 in the assay on OVCAR-8, in the assay on SF-295, with SK-MEL-2, with SK-MEL-5, in the assay on SN12C and in the assay with SNB-19 was > 100 µM (inactive) throughout. Further, the GI50 with TK-10 and in the assay with U-251 was > 100 µM (inactive) in each case.
On to `CC1=[N+]([O-])C(C)(C)N(O)C1(C)C`, for which the GI50 in the assay with A498, in the assay with A549, in the assay with COLO 205, with HOP-62, in the assay with IGROV-1 and in the assay on KM12 was > 100 µM (inactive) throughout. In addition, the GI50 in the assay with MCF7, with MDA-MB-231, in the assay on NCI-H23, in the assay on NCI-H460, in the assay on OVCAR-3 and in the assay on OVCAR-4 was > 100 µM (inactive) in each case. Further, the GI50 in the assay on OVCAR-8, with SF-295, in the assay on SK-MEL-2, with SK-MEL-5, with SN12C and in the assay with SNB-19 was > 100 µM (inactive) throughout. Moreover, the GI50 in the assay on TK-10 and in the assay with U-251 was > 100 µM (inactive) each time.
Take `Cc1cc(Nc2ccc(/N=N/c3ccc(O)c4ncccc34)cc2)nc(C)n1`: the GI50 in the assay with A498 is 21.6 µM (inactive); with A549 it was 9.82 µM (inactive); with COLO 205 it was 20.8 µM (inactive); in the assay on HOP-62, 15.9 µM (inactive); with IGROV-1, 8.57 µM (inactive); in the assay with KM12, 12.4 µM (inactive). For the same compound, the GI50 with MCF7 is 11 µM (inactive); in the assay with MDA-MB-231 it was 24.9 µM (inactive); with NCI-H23, 7.24 µM (inactive); in the assay with NCI-H460, 6.93 µM (inactive); in the assay on OVCAR-3 it was 7.76 µM (inactive); in the assay on OVCAR-4 it was 18 µM (inactive). In addition, the GI50 in the assay on OVCAR-8 was 6.61 µM (inactive); with SF-295, 18.6 µM (inactive); in the assay on SK-MEL-2, 13.8 µM (inactive); in the assay with SK-MEL-5, 10.8 µM (inactive); in the assay on SN12C it was 10.4 µM (inactive); in the assay with SNB-19, 8.53 µM (inactive). Besides, the values for the GI50 with TK-10 and in the assay on U-251 were 17.9 µM (inactive) and 8.13 µM (inactive), respectively.
For `Nc1cc(N)c(/N=N/c2cccc3c(S(=O)(=O)O)cccc23)cc1/N=N/c1cc([N+](=O)[O-])ccc1O`, the GI50 was 27 µM (inactive) in the assay with A498; 25.5 µM (inactive) with A549; 38.5 µM (inactive) in the assay with COLO 205; 29.9 µM (inactive) in the assay with HOP-62; 15.6 µM (inactive) in the assay on IGROV-1; 33.2 µM (inactive) in the assay on KM12. Further, the GI50 in the assay with MCF7 is 32.6 µM (inactive); in the assay with MDA-MB-231 it was 14.6 µM (inactive); in the assay on NCI-H23 it was 45 µM (inactive); in the assay with NCI-H460, 29.1 µM (inactive); with OVCAR-3, 9.08 µM (inactive); in the assay on OVCAR-4, 18.4 µM (inactive). Moreover, the GI50 in the assay with OVCAR-8 was 23.4 µM (inactive); with SF-295, 32.2 µM (inactive); with SK-MEL-2, 22.4 µM (inactive); in the assay on SK-MEL-5, 17.6 µM (inactive); in the assay with SN12C it was 32.3 µM (inactive); in the assay with SNB-19, 48.9 µM (inactive). Besides, the GI50 with TK-10 is 47 µM (inactive); with U-251 it was 13.7 µM (inactive).
For the compound `NC(Cc1c[nH]c2ccccc12)P(=O)(O)O` (stereo not given), the GI50 with A498, with A549, in the assay with COLO 205, in the assay on HOP-62, in the assay with IGROV-1 and with KM12 was > 100 µM (inactive) throughout. The GI50 in the assay on MCF7, with MDA-MB-231, with NCI-H23, with NCI-H460, with OVCAR-3 and in the assay on OVCAR-4 was > 100 µM (inactive) throughout. Moreover, the GI50 in the assay with OVCAR-8, with SF-295, with SK-MEL-2, with SK-MEL-5, with SN12C and with SNB-19 was > 100 µM (inactive) each time. Further, the GI50 in the assay on TK-10 and with U-251 was > 100 µM (inactive) throughout.
For the compound `C/C=C/C=C/C1=NN(c2cccc(S(=O)(=O)O)c2)C2(C1)C(Cl)C(=O)N2c1nc2ccccc2s1` (stereo not given), the GI50 in the assay on A498 was 16.3 µM (inactive); with A549, 14.6 µM (inactive); in the assay with COLO 205, 18.3 µM (inactive); in the assay with HOP-62 it was 14.7 µM (inactive); in the assay on IGROV-1, 11 µM (inactive); in the assay with KM12 it was 13.6 µM (inactive). Besides, the GI50 in the assay on MCF7 is 13.4 µM (inactive); in the assay on MDA-MB-231 it was 14.5 µM (inactive); with NCI-H23, 15.1 µM (inactive); in the assay with NCI-H460, 15.4 µM (inactive); in the assay on OVCAR-3, 8.36 µM (inactive); in the assay with OVCAR-4, 13.7 µM (inactive). Besides, the GI50 in the assay on OVCAR-8 was 22 µM (inactive); in the assay on SF-295 it was 16.3 µM (inactive); with SK-MEL-2, 15.6 µM (inactive); with SK-MEL-5 it was 12.2 µM (inactive); in the assay on SN12C it was 14.9 µM (inactive); in the assay on SNB-19, 15.2 µM (inactive). For the same compound, the GI50 in the assay on TK-10 is 14.3 µM (inactive); with U-251, 9.55 µM (inactive).
As to `c1cc2c(cc1NC1=NCCO1)CCCC2`, the GI50 in the assay on A498 is 3.76 µM (inactive); in the assay with A549 it was 4.8 µM (inactive); with COLO 205, 1.84 µM (inactive); in the assay on HOP-62, 2.67 µM (inactive); in the assay on IGROV-1 it was 4.37 µM (inactive); in the assay on KM12 it was 2.77 µM (inactive). Besides, the GI50 in the assay with MCF7 was 0.619 µM (active); in the assay with MDA-MB-231 it was 2.16 µM (inactive); with NCI-H23, 4.09 µM (inactive); in the assay on NCI-H460, 3.3 µM (inactive); in the assay with OVCAR-3, 3.51 µM (inactive); with OVCAR-4 it was 10.7 µM (inactive). Besides, the GI50 with OVCAR-8 was 3.66 µM (inactive); in the assay with SF-295, 4.02 µM (inactive); in the assay with SK-MEL-2, 2.97 µM (inactive); in the assay on SK-MEL-5, 3.05 µM (inactive); in the assay with SN12C, 3.56 µM (inactive); in the assay on SNB-19 it was 21.7 µM (inactive). Besides, the values for the GI50 with TK-10 and with U-251 were 10.6 µM (inactive) and 4.16 µM (inactive), respectively.
